According to patent US9403850B2, “Beta-lactamase inhibitors” (priority 2013, dated 2016):

How the values were obtained:
[1] = test system: P. aeruginosa Ps296 expressing VIM-2; test: Broth microdilution MIC assay, partner meropenem; type: cell-based; conditions: Pseudomonas aeruginosa, read-out: MIC of Exemplary Compounds in presence of fixed β-lactams, Fixed Mero, P. aerug. Ps296 VIM-2
[2] = test system: E. coli ESBL4 expressing CTX-M-15; test: Broth microdilution MIC assay, partner ceftazidime; type: cell-based; conditions: Escherichia coli, read-out: MIC of Exemplary Compounds in presence of fixed β-lactams, Fixed CAZ, E. coli ESBL4 CTX-M-15
[3] = test system: E. cloacae 144200 expressing Class C P99 AmpC; test: Broth microdilution MIC assay, partner ceftazidime; type: cell-based; conditions: for MIC: Enterobacter cloacae, read-out: MIC of Exemplary Compounds in presence of fixed β-lactams, Fixed CAZ, E. cl. 144200 p99 AmpC
VIM-2 = target: T1, VIM-2 (Escherichia coli, UniProt Q5U7L7); test: β-Lactamase enzyme inhibition assay, VIM-2 (nitrocefin substrate); type: biochemical; conditions: nitrocefin substrate 100 μM, 15 min preincubation at 37° C.; read-out: IC50, Class B VIM-2
T1 construct: made in house; host or cells: E. coli BL21(DE3)
Protocol: For Vim-2 metallo β-lactamase, the procedure was identical with the following exceptions, first the protein was not pH adjusted to pH 5 with 50 mM sodium acetate, second, the chromatography step was changed to a 5 ml Q sepharose anion exchange column pre-equilibrated with 50 mM Hepes pH 7.5, and elution of the protein was achieved by a linear gradient of NaCl (0-600 mM). Finally, the VIM-2 purification required a second run (3rd step) on the Q sepharose anion exchange column to achieve acceptable purity (>90%).
An equal volume of diluted enzyme stock was added, and the plates were incubated at 37° C. for 15 min. Nitrocefin was used as substrate for p99 AmpC, VIM-2 and OXA-1 and dispensed into each well at a final concentration of 100 μM. Absorbance at 486 nm was immediately monitored for 10 min using a Biotek Powerwave XS2 microplate spectrophotometer using the GEN5 softweare package (Biotek Instruments, Winooski Vt.). In an analogous fashion, imipenem was used as substrate for Kpc-2 and Cefotaxime was used for SHV-5, while changes in absorbance upon hydrolysis of the β-lactam ring were monitored at 300 nm and 260 nm respectively in UV-transparent 96-well microtiter assay plates. Maximum rates of hydrolysis were compared to those in control wells (without inhibitors), and percentages of enzyme inhibition were calculated for each concentration of inhibitor. The concentration of inhibitor needed to reduce the initial rate of hydrolysis of substrate by 50% (IC50) was calculated as the residual activity of β-lactamase at 486 nm using GraFit version 7 kinetics software package (Erithacus Software, Surrey, UK).
Using the methodology described above, examples of the current invention were evaluated for their ability to inhibit β-lactamase enzymes from all four Ambler classifications (A through D). […] NT=Not tested.

[4] = test system: K. pneumoniae 156319 expressing KPC-3; test: Broth microdilution MIC assay, partner meropenem; type: cell-based; conditions: Klebsiella pneumoniae, read-out: MIC of Exemplary Compounds in presence of fixed β-lactams, Fixed Mero, K.P. 156319 KPC-3
[5] = test system: S. aureus MSSA-7 producing penicillinase PC-1; test: Broth microdilution MIC assay, partner piperacillin; type: cell-based; conditions: Staphylococcus aureus, fixed piperacillin 4 μg/mL, read-out: MIC of Exemplary Compounds in presence of fixed β-lactams, Fixed Pip, S. aureus MSSA-7 PC-1
[6] = test system: K. pneumoniae A-1797 expressing KPC-2 and VIM-4; test: Broth microdilution MIC assay, partner meropenem; type: cell-based; conditions: Klebsiella pneumoniae, read-out: MIC of Exemplary Compounds in presence of fixed β-lactams, Fixed Mero, K.P. A-1797 KPC-2 VIM-4

SMILES | MIC [1] [µg/mL] | MIC [2] [µg/mL] | MIC [3] [µg/mL] | IC50 (VIM-2) [nM] | MIC [4] [µg/mL] | MIC [5] [µg/mL] | MIC [6] [µg/mL] | MIC of Exemplary Compounds in presence of fixed β-lactams, Fixed CAZ, E. cl. 144200 p99 AmpC ([3]; fixed ceftazidime 4 μg/mL)
O=C1Cc2cc(C(=O)N[C@H]3Cc4cccc(C(=O)O)c4OB3O)ccc2N1 [Example 33, (R)-2-Hydroxy-3-[(2-oxo-2,3-dihydro-1H-indole-5-carbonyl)-amino]-3,4-dihydro-2H-benzo[e][1,2]oxaborinine-8-carboxylic acid] | < 4 | < 4 | < 4 | 100 to 1000 | < 4 | < 4 | 8 to 32 | 
O=C(N[C@H]1Cc2cccc(C(=O)O)c2OB1O)c1ccc2nc[nH]c2c1 [Example 34, (R)-3-[(3H-Benzoimidazole-5-carbonyl)-amino]-2-hydroxy-3,4-dihydro-2H-benzo[e][1,2]oxaborinine-8-carboxylic acid] | < 4 | < 4 | < 4 | 100 to 1000 | < 4 | < 4 | 8 to 32 | 
O=C(N[C@H]1Cc2cccc(C(=O)O)c2OB1O)c1cnc2[nH]ccc2c1 [Example 35, (R)-2-Hydroxy-3-[(1H-pyrrolo[2,3-b]pyridine-5-carbonyl)-amino]-3,4-dihydro-2H-benzo[e][1,2]oxaborinine-8-carboxylic acid] | < 4 | < 4 | < 4 | 100 to 1000 | < 4 | < 4 | > 32 | 
N=C(N)N1Cc2ccc(CC(=O)N[C@H]3Cc4cccc(C(=O)O)c4OB3O)cc2C1 [Example 37, (3R)-3-[[2-(2-carbamimidoylisoindolin-5-yl)acetyl]amino]-2-hydroxy-3,4-dihydro-1,2-benzoxaborinine-8-carboxylic acid] | < 4 | < 4 | < 4 | 100 to 1000 | < 4 | < 4 | > 32 | 
O=C(Cc1ccc(O)c(O)c1)N[C@H]1Cc2cccc(C(=O)O)c2OB1O [Example 38, (R)-3-(2-(3,4-dihydroxyphenyl)acetamido)-2-hydroxy-3,4-dihydro-2H-benzo[e][1,2]oxaborinine-8-carboxylic acid] | 8 to 32 | < 4 | < 4 | 100 to 1000 | < 4 | < 4 | 8 to 32 | 
O=C(N[C@H]1Cc2cccc(C(=O)O)c2OB1O)c1ccc(O)c(O)c1 [Example 39, (R)-3-(3,4-dihydroxybenzamido)-2-hydroxy-3,4-dihydro-2H-benzo[e][1,2]oxaborinine-8-carboxylic acid] | 8 to 32 | < 4 | < 4 | 100 to 1000 | < 4 | 8 to 32 | 8 to 32 | 
NCCOc1ccc(C(=O)N[C@H]2Cc3cccc(C(=O)O)c3OB2O)cc1O [Example 40, (R)-3-(4-(2-aminoethoxy)-3-hydroxybenzamido)-2-hydroxy-3,4-dihydro-2H-benzo[e][1,2]oxaborinine-8-carboxylic acid] | < 4 | < 4 | < 4 | < 100 | < 4 | < 4 | < 4 | 
NCCn1ccc2ccc(C(=O)N[C@H]3Cc4cccc(C(=O)O)c4OB3O)cc21 [Example 41, (R)-3-{[1-(2-Amino-ethyl)-1H-indole-6-carbonyl]-amino}-2-hydroxy-3,4-dihydro-2H-benzo[e][1,2]oxaborinine-8-carboxylic acid] | 8 to 32 | < 4 | < 4 | < 100 | > 32 | < 4 | < 4 | 
NCCn1ccc2c(C(=O)N[C@H]3Cc4cccc(C(=O)O)c4OB3O)cccc21 [Example 42, (R)-3-{[1-(2-Amino-ethyl)-1H-indole-4-carbonyl]-amino}-2-hydroxy-3,4-dihydro-2H-benzo[e][1,2]oxaborinine-8-carboxylic acid] | < 4 | < 4 | < 4 | 100 to 1000 | > 32 | < 4 | 8 to 32 | 
Cn1ccc2ccc(C(=O)N[C@H]3Cc4cccc(C(=O)O)c4OB3O)cc21 [Example 43, (R)-2-Hydroxy-3-[(1-methyl-1H-indole-6-carbonyl)-amino]-3,4-dihydro-2H-benzo[e][1,2]oxaborinine-8-carboxylic acid] | > 32 | < 4 | < 4 | 100 to 1000 | > 32 | < 4 | > 32 | 
NCc1cc(CN)cc(C(=O)N[C@H]2Cc3cccc(C(=O)O)c3OB2O)c1 [Example 44, (R)-3-(3,5-bis(aminomethyl)benzamido)-2-hydroxy-3,4-dihydro-2H-benzo[e][1,2]oxaborinine-8-carboxylic acid] | > 32 | 8 to 32 |  | 1000 to 10000 | > 32 | > 32 | > 32 | A (A represents an MIC of the fixed β-lactam antibiotic in the presence of >32 μg/mL of a β-lactamase inhibitor of exemplary compounds)
N=C(N)NCc1cc(CNC(=N)N)cc(C(=O)N[C@H]2Cc3cccc(C(=O)O)c3OB2O)c1 [Example 45, (R)-3-(3,5-bis(guanidinomethyl)benzamido)-2-hydroxy-3,4-dihydro-2H-benzo[e][1,2]oxaborinine-8-carboxylic acid] | < 4 | < 4 | < 4 | < 100 | < 4 | > 32 | < 4 | 
O=C(Cc1ccc2cc[nH]c2c1)N[C@H]1Cc2cccc(C(=O)O)c2OB1O [Example 46, (R)-2-Hydroxy-3-(2-1H-indol-6-yl-acetylamino)-3,4-dihydro-2H-benzo[e][1,2]oxaborinine-8-carboxylic acid] | < 4 | < 4 | < 4 | < 100 | < 4 | 8 to 32 | < 4 | 
O=C(N[C@H]1Cc2cccc(C(=O)O)c2OB1O)c1ccc(-c2ncc[nH]2)cc1 [Example 47, (R)-2-Hydroxy-3-[4-(1H-imidazol-2-yl)-benzoylamino]-3,4-dihydro-2H-benzo[e][1,2]oxaborinine-8-carboxylic acid] | 8 to 32 | < 4 | < 4 | 100 to 1000 | < 4 | < 4 | > 32 | 
CN1Cc2ccc(CC(=O)N[C@H]3Cc4cccc(C(=O)O)c4OB3O)cc2C1 [Example 48, (R)-2-Hydroxy-3-[2-(2-methyl-2,3-dihydro-1H-isoindol-5-yl)-acetylamino]-3,4-dihydro-2H-benzo[e][1,2]oxaborinine-8-carboxylic acid] | < 4 | < 4 | < 4 | < 100 | < 4 | < 4 | < 4 | 
NCCN1Cc2ccc(CC(=O)N[C@H]3Cc4cccc(C(=O)O)c4OB3O)cc2C1 [Example 49, (R)-3-{2-[2-(2-Amino-ethyl)-2,3-dihydro-1H-isoindol-5-yl]-acetylamino}-2-hydroxy-3,4-dihydro-2H-benzo[e][1,2]oxaborinine-8-carboxylic acid] | < 4 | < 4 | < 4 | 100 to 1000 | < 4 | < 4 | > 32 | 
O=C(N[C@H]1Cc2cccc(C(=O)O)c2OB1O)c1cnc2c(c1)CNC2 [Example 50, (3R)-3-(6,7-dihydro-5H-pyrrolo[3,4-b]pyridine-3-carbonylamino)-2-hydroxy-3,4-dihydro-1,2-benzoxaborinine-8-carboxylic acid] | < 4 | < 4 | < 4 | 100 to 1000 | < 4 | < 4 | > 32 | 
